Drawing on US8084621B2, “3-Pyrrolo[b]cyclohexylene-2-dihydroindolinone derivatives and uses thereof” (Jiangsu Simcere Pharmaceutical R&D Co. Ltd., priority 2006, dated 2011), this text covers IC50 and inhibition for six molecules.

One assay has as its target T1, VEGFR-2 (Homo sapiens, UniProt P35968).
T1 construct: purchased Cell Signaling Technology CO
Kind of assay: Protein kinase activity by ELISA in vitro, VEGFR-2. Format: biochemical. Conditions: read-out: IC50 of the VEGF Receptor Kinase. The method, then:
An ELISA (Enzyme-Linked Immunosorbent Sandwich Assay) procedure may be used to detect and measure the level of protein tyrosine kinase activity. […] According to the principle of ELISA, a monoclonal antibody can react with phosphorylated substrate specially, so biotin-labeled substrate is binded to streptavidin-coated ELISA plate, and then binded to a HRP-labeled goat anti-mouse antibody. Finally TMB is added for a color reaction and the value of A450-A630 is read by ELISA plate reader. The OD value can reflect the inhibitory activity of the VEGFR-2, PDGFR-β, c-Kit tyrosine kinases etc. treated with the test compounds at the different concentrations. So, the assay may be used to measure the inhibition ratio of the compounds for the tyrosine kinase activity. Similar assays can be designed along the same lines for any PK using techniques well known in the art.
According to the principle of ELISA, a monoclonal antibody can react with phosphorylated substrate specially, so biotin-labeled substrate is binded to streptavidin-coated ELISA plate, and then binded to a HRP-labeled goat anti-mouse antibody. Finally TMB is added for a color reaction and the value of A450-A630 is read by ELISA plate reader. The OD value can reflect the inhibitory activity of the VEGFR-2, PDGFR-β c-Kit tyrosine kinases treated with the test compounds at the different concentrations. So, the assay may be used to measure the inhibition ratio of the compounds for the tyrosine kinase activity. Similar assays can be designed along the same lines for any PK using techniques well known in the art.
VEGF Receptor 2, PDGF Receptor-beta and c-kit kinase assay kit (include kinase, 1.25M DTT, substrate peptide, 10 mM ATP, P-Tyr-100 Mouse antibody, 4×HTScan tyrosine kinase buffer), Cell Signaling Technology CO.; HRP labeled goat anti mouse IgG, Protein Tech CO.; TMB, Pierce CO.; Streptavidin Microtitration Plate, Greiner Bio-one CO.; Infinite M200 Reader, Tecan CO.
1.2.1 Immediately transfer enzyme from −80° C. to ice. Allow enzyme to thaw on ice then at 4° C. and centrifugate transiently to the bottom of centrifuge tube, then lay back on ice quickly
1.2.2 Add 10 μl of DTT (1.25 M) to 2.5 ml of 4×HTScan tyrosine kinase buffer (240 mM HEPES pH 7.5, 20 mM MgCl2, 20 mM MnCl2, 12 μM Na3VO4). Transfer 0.6 ml of DTT/Kinase buffer to each enzyme tube to make 4× reaction Cocktail. Incubate 12.5 μl of the 4× reaction cocktail with 12.5 μl/well prediluted compound of interest for 5 minutes at room temperature, and set blank control, free-enzyme control, negative control and positive control. 1.2.3 Add 10 μl 10 mM ATP to 1.25 ml 6 μM substrate peptide. Dilute the mixture with dH20 to 2.5 ml to make 2×ATP/substrate cocktail. Add 25 μl of 2×ATP/substrate cocktail to 25 μl/well preincubated reaction cocktail/compound. Incubate reaction plate at room temperature for 30 minutes. 1.2.4 Add 50 μl/well stop Buffer (50 mM EDTA, pH 8) to stop the reaction. Transfer 25 μl of each reaction and 75 μl dH2O/well to a 96-well streptavidin coated plate and incubate at room temperature for 60 minutes. Wash three times with 200 μl/well PBS/T(1×PBS, 0.05% Tween-20). 1.2.5 Dilute primary antibody, Phospho-Tyrosine mAb (P-Tyr-100), 1:500 in PBS/T with 1% BSA. Add 100 μl/well primary antibody. Incubate at room temperature for 60 minutes. Wash three times with 200 μl/well PBS/T(1×PBS, 0.05% Tween-20). 1.2.6 Prepare appropriate dilution of HRP labeled secondary antibody, 1:500 in PBS/T with 1% BSA. Add 100 μl/well secondary antibody solution. Incubate at room temperature for 30 minutes. Wash five times with 200 μl/well PBS/T 1.2.7 Add 100 μl/well TMB substrate and incubate at room temperature for 1-10 minutes. Add 50 μl 2M H2SO4 to stop the color reaction. Read the absorbance of A450-A630 with the Infinite M200 microtiter plate reader. 1.2.8 Calculate the inhibition ratio with the following formula: […]

For assay [1], the system named is Human Ovarian Cancer Cell Line (SK-OV-3). The assay can be described thus: Tumor cell proliferation assay (MTT), SK-OV-3. It counts as cell-based. The settings on record: for inhibition at 10 µM: concentration of 10^−5 mol/L, preliminary screening, 72 hours, read-out: Inhibition rate % SK-OV-3; for IC50: secondary screening, 48 hours. The text has this:
(§1) The assay used generally is the blue tetrazolium bromide (MTT) method. […] The amount of formazan can be detected by the microplate reader through the absorption value at 570 nm. The amount of formazan product generated is proportional to the number of living cells in the sample, so the OD value may reflect the number of living cells and the ability of a test drug to inhibit or kill cells. The MTT assay may be used in determining the ability of different compounds of the present invention to inhibit one or more cancer cells proliferation. Similar assays can be designed along the same lines for any cancer cell using techniques well known in the art.
(§2) The assay used generally is the blue tetrazolium bromide (MTT) method. […] Intracellular purple formazan salt crystals can be solved in DMSO and the absorption value at 570 nm is detected by the microplate reader, then the number of living cells can be detected indirectly. So MTT assay may be used to determine the ability of a compound of the present invention to inhibit cell proliferation. Similar assays can be designed along the same lines for any cancer cell using techniques well known in the art.
2.2.13 Human Ovarian Cancer Cell Line (SK-OV-3).
(§3) The cells of 2.2.11, 2.2.12, 2.2.13 were cultured in MC COYS 5-A medium containing 12% fetal bovine serum in the condition of 37° C., 5% CO2.
(§4) 2.3.1 Cell seeding: Trypsinize the cell by 0.05% trypsin-EDTA and add RPMI 1640 medium (DMEM or 5A) containing 12% calf serum. Count the number, then dilute to 1.67×10^4/ml. Add 180 ul/well to the 96 well plate (3000 cells/well).
(§5) 2.3.2 Culture: cells are incubated for 24 hours at 37° C. under 5% CO2.
(§6) 2.3.3 Preliminary screening: The compounds are firstly diluted to 0.1 mol/L with DMSO, and then diluted to three concentrations of 10^−5 mol/L, 10^−6 mol/L and 10^−7 mol/L. Add 20 ul test compounds to the 96 well plate and incubate for 72 hours. Each group has three parallel wells and all experiments repeat three times. Each inhibition ratio is calculated, then an average value of three times is taken as the measured value. 2.3.4 Staining 2.3.4.1 Attached cell: add 20 ul/well MTT to the 96-well plates; incubate for 4 hours in the incubator. Pour out the culture medium in the well and add 100 ul/well DMSO. Shake the plate for 5 min. 2.3.4.2 Suspension cell: add 20 ul/well MTT to the 96-well plates; incubate for 4 hours in the incubator. Add 50 ul/well 20% SDS and incubate for overnight in the incubator. 2.3.5 Reading the plates: read the absorbance A570-A630 with the Infinite M200 microtiter plate reader. Calculate the inhibition ratio of the test compounds. 2.3.6 Secondary screening: the compounds whose inhibition ratio is greater than 50% at the concentrations of 10^−5 mol/L in the preliminary screening will be picked out for Secondary screening. Dilute these compounds to ten concentrations: 10^−5 mol/L, 0.5×10^−5 mol/L, 10^−6 mol/L, 0.8×10^−6 mol/L, 0.6×10^−6 mol/L, 0.4×10^−6 mol/L, 0.2×10^−6 mol/L, 10^−7 mol/L, 0.8×10^−7 mol/L and 0.4×10^−7 mol/L. Add 20 ul test compound solution to the 96 well plate and incubate for 48 hours. Each group has three parallel wells and all experiments repeat for three times. Read the plates and calculate the inhibition ratio according to the preliminary screening method. 2.3.7 Calculate the Inhibition Ratio of Cell Proliferation and the IC50
(§7) According to the inhibition ratio of cell proliferation at the different concentrations of the compound, inhibition ratio of 50% of the test compound is calculated through the logarithm of the concentration of the compound with the Logit [I] linear regression, and an average value of three times is taken as the measured value of a sample.

For assay [2], the system named is Human Pancreatic Carcinoma Cell Line (BXPC-3). The assay can be described thus: Tumor cell proliferation assay (MTT), BXPC-3. Format: cell-based. Conditions: for inhibition at 10 µM: concentration of 10^−5 mol/L, preliminary screening, 72 hours, read-out: Inhibition rate % BXPC-3; for IC50: secondary screening, 48 hours.
Source text: as §1, §2
2.2.6 Human Pancreatic Carcinoma Cell Line (BXPC-3);
The cells of 2.2.6, 2.2.7 cultured in RPMI 1640 medium containing 12% fetal bovine serum in the condition of 37° C., 5% CO2.
as §4, §5
as §6, with “2.3.6 Secondary screening: the compounds whose inhibition ratio is greater than 50% at the concentrations of 10^−5 mol/L in the preliminary screening will be picked out for Secondary screening.” left out
as §7

Assay [3] concerns Human Small Cell Lung Cancer Cell Line (NCI-H446). The assay can be described thus: Tumor cell proliferation assay (MTT), NCI-H446. Format: cell-based. The settings on record: for inhibition at 10 µM: concentration of 10^−5 mol/L, preliminary screening, 72 hours, read-out: Inhibition rate % NCI-H446; for IC50: secondary screening, 48 hours.
Source text: as §1, §2
2.2.5 Human Small Cell Lung Cancer Cell Line (NCI-H446)
(§8) The cells of the 2.2.1, 2.2.2, 2.2.3, 2.2.4, 2.2.5 cultured with RPMI 1640 containing 12% calf serum in the condition of 37° C., 5% CO2.
as §4, §5, §6, §7

For assay [4], the system named is Human Gastric Cancer Cell Line (BGC). The assay can be described thus: Tumor cell proliferation assay (MTT), BGC. The settings on record: for inhibition at 10 µM: concentration of 10^−5 mol/L, preliminary screening, 72 hours, read-out: Inhibition rate % BGC; for IC50: secondary screening, 48 hours. It counts as cell-based.
Source text: as §1, §2
2.2.1 Human Gastric Cancer Cell Line (BGC)
as §8, §4, §5, §6, §7

Assay [5] has as its system Human Colon Cancer Cell Line (HT-29). Kind of assay: Tumor cell proliferation assay (MTT), HT29. The settings on record: for inhibition at 10 µM: concentration of 10^−5 mol/L, preliminary screening, 72 hours, read-out: Inhibition rate % HT29; for IC50: secondary screening, 48 hours. It counts as cell-based.
Source text: as §1, §2
2.2.11 Human Colon Cancer Cell Line (HT-29);
as §3, §4, §5
as §6, with “2.3.6 Secondary screening: the compounds whose inhibition ratio is greater than 50% at the concentrations of 10^−5 mol/L in the preliminary screening will be picked out for Secondary screening.” left out
as §7

T1 sequence (P35968 20-1356): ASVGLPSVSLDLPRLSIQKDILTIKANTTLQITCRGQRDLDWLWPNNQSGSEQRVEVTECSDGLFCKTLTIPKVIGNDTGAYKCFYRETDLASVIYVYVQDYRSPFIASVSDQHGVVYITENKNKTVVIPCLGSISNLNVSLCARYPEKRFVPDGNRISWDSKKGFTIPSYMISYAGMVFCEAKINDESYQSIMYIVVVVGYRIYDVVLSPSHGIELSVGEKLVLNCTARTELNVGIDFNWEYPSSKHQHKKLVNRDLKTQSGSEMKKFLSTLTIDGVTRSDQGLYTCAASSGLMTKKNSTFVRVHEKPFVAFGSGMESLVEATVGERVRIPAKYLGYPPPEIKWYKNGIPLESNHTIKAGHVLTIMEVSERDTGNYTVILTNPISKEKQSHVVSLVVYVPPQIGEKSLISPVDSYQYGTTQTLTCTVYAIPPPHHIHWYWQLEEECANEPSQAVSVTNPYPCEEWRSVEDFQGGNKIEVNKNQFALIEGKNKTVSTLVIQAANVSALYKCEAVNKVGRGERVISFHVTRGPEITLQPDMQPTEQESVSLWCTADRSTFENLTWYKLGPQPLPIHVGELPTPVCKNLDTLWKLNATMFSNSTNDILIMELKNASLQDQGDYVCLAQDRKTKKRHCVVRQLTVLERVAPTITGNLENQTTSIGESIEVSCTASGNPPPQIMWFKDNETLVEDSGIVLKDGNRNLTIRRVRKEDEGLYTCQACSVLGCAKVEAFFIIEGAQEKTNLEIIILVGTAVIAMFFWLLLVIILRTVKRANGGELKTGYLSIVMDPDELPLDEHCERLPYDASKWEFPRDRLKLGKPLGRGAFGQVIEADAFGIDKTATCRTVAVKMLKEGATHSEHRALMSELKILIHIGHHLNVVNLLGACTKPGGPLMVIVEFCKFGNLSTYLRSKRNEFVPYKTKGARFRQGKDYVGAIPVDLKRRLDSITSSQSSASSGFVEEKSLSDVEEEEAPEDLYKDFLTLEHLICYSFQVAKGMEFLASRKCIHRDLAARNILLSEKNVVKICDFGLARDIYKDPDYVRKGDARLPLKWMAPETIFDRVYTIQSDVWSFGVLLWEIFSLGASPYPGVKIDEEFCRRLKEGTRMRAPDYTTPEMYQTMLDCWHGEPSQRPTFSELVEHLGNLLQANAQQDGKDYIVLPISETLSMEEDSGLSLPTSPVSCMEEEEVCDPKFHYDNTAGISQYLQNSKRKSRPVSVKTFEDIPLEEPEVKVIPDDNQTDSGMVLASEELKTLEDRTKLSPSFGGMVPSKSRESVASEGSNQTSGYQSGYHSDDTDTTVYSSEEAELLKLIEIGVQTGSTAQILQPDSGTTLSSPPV

As for `CCN(CC)CCNC(=O)c1c(C)[nH]c2c1CCC/C2=C1/C(=O)Nc2ccc(S(=O)(=O)NC)cc21` [I-55, N-(2-(diethylamino)ethyl)-2-methyl-7-[N-methyl-1,2-dihydro-2-oxo-3H-indol-5-sulfonamide-(Z)-3-ylidene]-4,5,6,7-tetrahydro-1H-indole-3-carboxamide], at VEGFR-2, the IC50 (commonly the concentration that gives 50% inhibition) is 19 nM.

Take `Cc1[nH]c2c(c1C(=O)NCCc1ccccn1)CCC/C2=C1/C(=O)Nc2ccc(F)cc21` [I-56, N-(2-(pyridin-2-yl)ethyl)-2-methyl-7-[1,2-dihydro-5-fluoro-2-oxo-3H-indol-(Z)-3-ylidene]-4,5,6,7-tetrahydro-1H-indole-3-carboxamide]: the IC50 at VEGFR-2 worked out at 17 nM.

For `Cc1[nH]c2c(c1C(=O)N(C)CCN(C)C)CCC/C2=C1/C(=O)Nc2ccc(F)cc21` [I-57, N-(2-(dimethylamino)ethyl)-N,2-dimethyl-7-[1,2-dihydro-5-fluoro-2-oxo-3H-indol-(Z)-3-ylidene]-4,5,6,7-tetrahydro-1H-indole-3-carboxamide], the half-maximal inhibitory concentration (IC50) on VEGFR-2 came to 13 nM.

`Cc1[nH]c2c(c1C(=O)N1CCC[C@H]1CN1CCCC1)CCC/C2=C1/C(=O)Nc2ccc(F)cc21` [I-60]: on VEGFR-2, the IC50 is 14 nM.

For `CCN(CC)CC(O)CNC(=O)c1c(C)[nH]c2c1CCC/C2=C1/C(=O)Nc2ccc(F)cc21` (stereo not drawn) [I-64, N-(3-(diethylamino)-2-hydroxypropyl)-2-methyl-7-[1,2-dihydro-5-fluoro-2-oxo-3H-indol-(Z)-3-ylidene]-4,5,6,7-tetrahydro-1H-indole-3-carboxamide], the inhibition (usually the relative decrease from the control value, in per cent) at 10 µM in assay [1] was 93.5%; in assay [2], 98.5%; in assay [3], 98.1%; in assay [4] it was 84.7%; in assay [5] it was 96.6%. For the same molecule, the IC50 in assay [1] worked out at 2240 nM; in assay [2], 1290 nM; in assay [3], 2050 nM; in assay [4] it was 2210 nM; in assay [5] it was 1300 nM.

In the case of `Cc1[nH]c2c(c1C(=O)NCC(O)CN(C)C)CCC/C2=C1/C(=O)Nc2ccc(F)cc21` (stereo not drawn) [I-66, N-(3-(dimethylamino)-2-hydroxypropyl)-2-methyl-7-[1,2-dihydro-5-fluoro-2-oxo-3H-indol-(Z)-3-ylidene]-4,5,6,7-tetrahydro-1H-indole-3-carboxamide], the inhibition at 10 µM in assay [1] came out at 85.1%; in assay [2], 97.9%; in assay [3], 88.7%; in assay [4], 76.8%; in assay [5], 93%. Also, the IC50 was 3170 nM in assay [1]; 3190 nM in assay [2]; 3030 nM in assay [3]; 4660 nM in assay [4]; 2890 nM in assay [5].
